Laboratory results taken from ChEMBL document CHEMBL3600325, “Inhibitory effect of pironetin analogue/colchicine hybrids on the expression of the VEGF, hTERT and c-Myc genes” (2015).

Experiments:
Format in all cases: functional
Design in all cases: scale not given: the % may be the effect or the level left
HT-29 [1] = test: Inhibition of Myc mRNA expression in human HT-29 cells assessed as Myc mRNA level at 5 ug/ml incubated for 48 hrs by RT-PCR method relative to control
HT-29 [2] = test: Inhibition of hTERT mRNA expression in human HT-29 cells assessed as hTERT mRNA level at 5 ug/ml incubated for 48 hrs by RT-PCR method relative to control
HT-29 [3] = test: Inhibition of VEGF production in human HT-29 cells assessed as VEGF level at 5 ug/ml incubated for 72 hrs by ELISA method relative to control
HT-29 [4] = test: Inhibition of VEGF mRNA expression in human HT-29 cells assessed as VEGF mRNA level at 5 ug/ml incubated for 48 hrs by RT-PCR method relative to control
HT-29 [5] = test: Inhibition of hTERT mRNA expression in human HT-29 cells assessed as hTERT mRNA level at 10 uM incubated for 48 hrs by RT-PCR method relative to control
HT-29 [6] = test: Inhibition of Myc mRNA expression in human HT-29 cells assessed as Myc mRNA level at 10 uM incubated for 48 hrs by RT-PCR method relative to control
HT-29 [7] = test: Inhibition of VEGF mRNA expression in human HT-29 cells assessed as VEGF mRNA level at 50 nM incubated for 48 hrs by RT-PCR method relative to control
HT-29 [8] = test: Inhibition of hTERT mRNA expression in human HT-29 cells assessed as hTERT mRNA level at 50 nM incubated for 48 hrs by RT-PCR method relative to control
HT-29 [9] = test: Inhibition of VEGF mRNA expression in human HT-29 cells assessed as VEGF mRNA level at 10 uM incubated for 48 hrs by RT-PCR method relative to control
HT-29 [10] = test: Inhibition of Myc mRNA expression in human HT-29 cells assessed as Myc mRNA level at 50 nM incubated for 48 hrs by RT-PCR method relative to control

## COc1cc2c(c(OC)c1OC)-c1ccc(OC)c(=O)cc1[C@@H](NC(=O)CCCC(=O)OCCCCC[C@@H]1CC=CC(=O)O1)CC2
HT-29 [1]
  Activity: 16%
HT-29 [2]
  Activity: 67%
HT-29 [3]
  Activity: 45%
HT-29 [4]
  Activity: 6%

## COc1cc2c(c(OC)c1OC)-c1ccc(OC)c(=O)cc1[C@@H](NC(=O)CCCCCCCCCCC(=O)OCCCCC[C@@H]1CC=CC(=O)O1)CC2
HT-29 [1]
  Activity: 5%
HT-29 [2]
  Activity: 19%
HT-29 [3]
  Activity: 64%
HT-29 [5]
  Activity: 27%
HT-29 [6]
  Activity: 13%
HT-29 [7]
  Activity: 36%
HT-29 [8]
  Activity: 75%
HT-29 [9]
  Activity: 8%
HT-29 [4]
  Activity: 3%
HT-29 [10]
  Activity: 60%

## COc1cc2c(c(OC)c1OC)-c1ccc(OC)c(=O)cc1[C@@H](NC(=O)CCCC(=O)OCC[C@H](C[C@H](C)C[C@@H]1CC=CC(=O)O1)OC)CC2
HT-29 [1]
  Activity: 97%
HT-29 [2]
  Activity: 125%
HT-29 [3]
  Activity: 44%
HT-29 [4]
  Activity: 70%

## COc1cc2c(c(OC)c1OC)-c1ccc(OC)c(=O)cc1[C@@H](NC(=O)CCCCCCCCCCC(=O)OCC[C@H](C[C@H](O)C[C@@H]1CC=CC(=O)O1)OC)CC2
HT-29 [1]
  Activity: 15%
HT-29 [2]
  Activity: 42%
HT-29 [3]
  Activity: 44%
HT-29 [5]
  Activity: 55%
HT-29 [6]
  Activity: 32%
HT-29 [7]
  Activity: 51%
HT-29 [8]
  Activity: 81%
HT-29 [9]
  Activity: 9%
HT-29 [4]
  Activity: 7%
HT-29 [10]
  Activity: 94%

## CO[C@H](CCO)C[C@H](O)C[C@@H]1CC=CC(=O)O1
HT-29 [1]
  Activity: 111%
HT-29 [2]
  Activity: 125%
HT-29 [3]
  Activity: 93%
HT-29 [5]
  Activity: >100%
HT-29 [6]
  Activity: 66%
HT-29 [7]
  Activity: 90%
HT-29 [8]
  Activity: >100%
HT-29 [9]
  Activity: 40%
HT-29 [4]
  Activity: 44%
HT-29 [10]
  Activity: >100%

## COc1cc2c(c(OC)c1OC)-c1ccc(OC)c(=O)cc1[C@@H](NC(C)=O)CC2 [COLCHICINE]
HT-29 [1]
  Activity: 6%
HT-29 [2]
  Activity: 20%
HT-29 [3]
  Activity: 40%
HT-29 [5]
  Activity: 30%
HT-29 [6]
  Activity: 6%
HT-29 [7]
  Activity: 48%
HT-29 [8]
  Activity: 43%
HT-29 [9]
  Activity: 5%
HT-29 [4]
  Activity: 4%
HT-29 [10]
  Activity: 19%

## C/C=C/C[C@H](C)[C@@H](OC)[C@@H](C)[C@H](O)C[C@H]1OC(=O)C=C[C@H]1CC [PIRONETIN]
HT-29 [1]
  Activity: 118%
HT-29 [2]
  Activity: 119%
HT-29 [3]
  Activity: 50%
HT-29 [4]
  Activity: 48%
